From patent US20050107616A1, “Alpha-ketoamide derivatives as cathepsin k inhibitors” (priority 2001, published 2005) come the findings set out here.

For the assay, the target named is T1, human cathepsin K (Homo sapiens, UniProt P43235).
T1 construct: The proform of cathepsin K was converted to mature cathepsin K by brief exposure to pH 4; made in house; host or cells: baculovirus; Trichoplusia ni High Five cells (virus raised in Sf-9)
T1 sequence (P43235 115-329): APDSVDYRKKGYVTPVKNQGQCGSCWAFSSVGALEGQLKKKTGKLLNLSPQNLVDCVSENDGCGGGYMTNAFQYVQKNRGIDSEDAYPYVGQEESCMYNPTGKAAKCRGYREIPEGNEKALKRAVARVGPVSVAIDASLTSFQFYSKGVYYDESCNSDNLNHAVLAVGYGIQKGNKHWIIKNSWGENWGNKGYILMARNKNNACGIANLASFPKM
The assay is described as follows: Cathepsin K inhibition assay, fluorogenic substrate Cbz-Phe-Arg-AMC, progress curve method. The settings on record: Table 1; human recombinant enzyme, pH 5.5, 30° C., 10 μM substrate; read-out: hCat K Ki. In kind it is biochemical. Here is the method:
All assays for cathepsin K were carried out with human and rat recombinant enzyme. Assays for cathepsins S Et V were also carried out with human recombinant enzyme. Assays for human cathepsins B. H. and L were carried out with enzyme, purchased from Athens Research and Technology, Inc., prepared from human liver tissue. […] A stock substrate solution of Cbz-Phe-Arg-AMC was prepared at a concentration of 50 mM in dimethyl sulfoxide. This substrate was diluted into the assay for a final substrate concentration of 10 μM in the rat cathepsin K, human cathepsin K, and human cathepsin B assays; a final substrate concentration of 5 μM in the human cathepsin L assay; and a final substrate concentration of 2 μM in the human cathepsin V assay.
All assays contained 10% dimethyl sulfoxide. […] All assays were conducted at 30° C. Product fluorescence (excitation at 360 nm; emission at 440 nm, (except cathepsin H which used excitation at 340 nm; emission at 420 nm)) was monitored with a PerSeptive Biosystems Cytofluor II fluorescence plate reader. Product progress curves were generated over 2.3 h monitoring the formation of 7-amino-4-methylcoumarin product (or β-naphthalamide for cathepsin H).
Two liters of Spodoptera frugiperda (Sf-9) cells (ATCC) were grown in Grace's Supplemented medium (Life Technologies) supplemented with 2 g/L glucose, 10% a fetal bovine serum (HyClone) and 0.10% pluronic F-68 (Life Technologies). […] The cells continued to grow for 72 h post-infection, before the virus was harvested by centrifugation at 1400× g for 30 min.
One and one-half liters of Trichoplusia ni (T. ni) High Five (TM) cells [JRH Biosciences, Woodland, Calif. […] Media were separated from cells at a rate of 1 L/min using the Centritech 100 (TM) continuous-flow centrifuge (DuPont) operating at 200× g.
Protein Purification: Media (human and rat) were filtered through a Whatman 3 filter, and then loaded onto a 25 mL Poros HS II (26 mm×47 mm) cation exchange column equilibrated in 25 mM sodium acetate at pH 5.5 (equilibration buffer). The column was washed until the absorbance reached the baseline value, and then the protein was eluted with a linear gradient from 0-2 M sodium chloride in the equilibration buffer. Column fractions were analyzed by SDS-PAGE, N-terminal sequencing, and mass spectrometry. Fractions containing the proform of cathepsin K were pooled and frozen at −80° C. The proform was concentrated in an Amicon Centriprep 10 and fractionated with a Superdex 75 column (26 mm×600 mm, Pharmacia) equilibrated in 400 mM sodium chloride, 25 mM sodium acetate at pH 5.5.
Cathepsin K Activation: The proform of cathepsin K was converted to mature cathepsin K by brief exposure to pH 4 in the presence of 5 mM L-cysteine. Typically, 5 mM L-cysteine was added to 10 mL of approximately 1 mg/mL procathepsin K. One mL of this solution was diluted ten-fold into 450 mM sodium acetate at pH 4.0 containing 5 mM L-cysteine. This solution was reacted at 23° C. for 2 min before neutralization with 2 mL 1.8 M sodium acetate at pH 6.0. The neutralized sample was added to the remaining 9 mL of procathepsin K. The mixture was incubated at 4° C. for 2-3 days. The activated cathepsin K was chromatographed on a Poros HS II column as described above.
Potential inhibitors were evaluated using the progress curve method. Assays were carried out in the presence of variable concentrations of test compound. Reactions were initiated by addition of buffered solutions of inhibitor and substrate to enzyme. Data analysis was conducted according to one of two procedures depending on the appearance of the progress curves in the presence of inhibitors. […] Ki values were calculated from IC50 values using equation 2 assuming a competitive model. [formula]
One may read the Ki as the dissociation constant of the complex between target and ligand, obtained from inhibition or displacement. As to `CCCC[C@H](NC(=O)O[C@@H](Cc1nnc(-c2ccccc2)o1)C(C)C)C(=O)C(=O)N[C@H](C)c1ccccc1` [Example 11, (1S)-2-methyl-1-[(5-phenyl-1,3,4-oxadiazol-2-yl)methyl]propyl(1S)-1-(oxo{[(1R)-1-phenylethyl]amino}acetyl)pentylcarbamate], the Ki lay in the range of 100 to 10000 nM.
Then `CCCC[C@H](NC(=O)O[C@H](Cn1cnc(-c2ccc(C(F)(F)F)cc2)c1)C(C)(C)C)C(=O)C(=O)Nc1nccs1` [Example 51, (1S)-2,2-dimethyl-1-({4-[4-(trifluoromethyl)phenyl]-1H-imidazol-1-yl}methyl)propyl(1S)-1-[oxo(1,3-thiazol-2-ylamino)acetyl]pentylcarbamate], with 1 to 100 nM.
Then `CCCC[C@H](NC(=O)O[C@H](Cc1nnc(-c2ccc(F)cc2)o1)C(C)(C)C)C(=O)C(=O)N[C@H]1CCCNC1=O` [Example 25], with 0.01 to 1 nM; and `CCCC[C@H](NC(=O)O[C@H](Cn1ccc(-c2ccc(C(F)(F)F)cc2)n1)C(C)(C)C)C(=O)C(=O)Nc1ccccn1` [Example 5, (1S)-2,2-dimethyl-1-({3-[4-(trifluoromethyl)phenyl]-1H-pyrazol-1-yl}methyl)propyl(1S)-1-[oxo(2-pyridinylamino)acetyl]pentylcarbamate], with 1 to 100 nM.
In the case of `CCCC[C@H](NC(=O)O[C@H](Cn1ccc(-c2ccncc2)n1)C(C)(C)C)C(=O)C(=O)Nc1ccn[nH]1` [Example 45, (1S)-2,2-dimethyl-1-{[3-(4-pyridinyl)-1H-pyrazol-1-yl]methyl}propyl(1S)-1-[oxo(1H-pyrazol-5-ylamino)acetyl]pentylcarbamate], the Ki was in the range of 0.01 to 1 nM.
As to `CCCC[C@H](NC(=O)O[C@H](CCc1nnc(-c2ccc(C(F)(F)F)cc2)o1)C(C)(C)C)C(=O)C(=O)Nc1ccn[nH]1` [Example 26, (1R)-2,2-dimethyl-1-(2-{5-[4-(trifluoromethyl)phenyl]-1,3,4-oxadiazol-2-yl}ethyl)propyl(1S)-1-[oxo(1H-pyrazol-5-ylamino)acetyl]pentylcarbamate], the Ki is 0.01 to 1 nM.
Then `CCCC[C@H](NC(=O)O[C@@H](c1nnc(-c2cccnc2)o1)C(C)(C)C)C(=O)C(=O)Nc1ccn[nH]1` [Example 53, (1R)-2,2-dimethyl-1-[5-(3-pyridinyl)-1,3,4-oxadiazol-2-yl]propyl(1S)-1-[oxo(1H-pyrazol-5-ylamino)acetyl]pentylcarbamate], with 1 to 100 nM.
